Where “and” joins values, the source holds several entries; their conditions need not be identical. Equal values may be shown once. Inconclusive results and toxic doses are left out.
System: L1210 leukemia ip in BDF1 mice, survival T/C
Assay: NCI In Vivo Anticancer Drug Screen. Data for tumor model L1210 Leukemia (intraperitoneal) in B6D2F1 (BDF1) mice
Details: endpoint: mean survival time, higher = longer survival
In short: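 Value reflects the ratio of survival in compound-treated mice to survival in vehicle-treated controls, with both groups carrying the same transplanted tumor.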

[1] = dose: 100.0 mg/kg/injection, schedule: Q04DX003 (ip), vehicle: saline
[2] = dose: 200.0 mg/kg/injection, schedule: Q04DX003 (ip), vehicle: saline
[3] = dose: 100.0 mg/kg/injection, schedule: Q04DX002 (ip), vehicle: Klucel (hydroxypropylcellulose) (HPC)
[4] = dose: 200.0 mg/kg/injection, schedule: Q04DX002 (ip), vehicle: Klucel (hydroxypropylcellulose) (HPC)
[5] = dose: 100.0 mg/kg/injection, schedule: Q04DX002 (ip), vehicle: saline with Tween-80
[6] = dose: 200.0 mg/kg/injection, schedule: Q04DX002 (ip), vehicle: saline with Tween-80
[7] = dose: 400.0 mg/kg/injection, schedule: Q04DX002 (ip), vehicle: saline with Tween-80
[8] = dose: 100.0 mg/kg/injection, schedule: Q01DX009 (ip), vehicle: Klucel (hydroxypropylcellulose) (HPC)
[9] = dose: 100.0 mg/kg/injection, schedule: Q04DX003 (ip), vehicle: Klucel (hydroxypropylcellulose) (HPC)
[10] = dose: 200.0 mg/kg/injection, schedule: Q01DX009 (ip), vehicle: Klucel (hydroxypropylcellulose) (HPC)
[11] = dose: 200.0 mg/kg/injection, schedule: Q04DX003 (ip), vehicle: Klucel (hydroxypropylcellulose) (HPC)
[12] = dose: 400.0 mg/kg/injection, schedule: Q01DX009 (ip), vehicle: Klucel (hydroxypropylcellulose) (HPC)
[13] = dose: 400.0 mg/kg/injection, schedule: Q04DX003 (ip), vehicle: Klucel (hydroxypropylcellulose) (HPC)
[14] = dose: 100.0 mg/kg/injection, schedule: Q01DX009 (ip), vehicle: saline with Tween-80
[15] = dose: 200.0 mg/kg/injection, schedule: Q01DX009 (ip), vehicle: saline with Tween-80
[16] = dose: 400.0 mg/kg/injection, schedule: Q01DX009 (ip), vehicle: saline with Tween-80
[17] = dose: 50.0 mg/kg/injection, schedule: Q01DX009 (ip), vehicle: Klucel (hydroxypropylcellulose) (HPC)

COc1cccc[n+]1[O-]
T/C (dose: 50.0 mg/kg/injection, schedule: Q01DX009 (ip), vehicle: saline): 94 % of control
T/C (dose: 100.0 mg/kg/injection, schedule: Q01DX009 (ip), vehicle: saline): 101 % of control
T/C [1]: 96 % of control
T/C (dose: 200.0 mg/kg/injection, schedule: Q01DX009 (ip), vehicle: saline): 89 % of control
T/C [2]: 92 % of control

Nc1ccn([C@@H](C=O)O[C@@H](C=O)CO)c(=O)n1
T/C (dose: 35.0 mg/kg/injection, schedule: Q01DX009 (ip), vehicle: water): 111 % of control
T/C (dose: 35.0 mg/kg/injection, schedule: Q01DX Z (ip), vehicle: water): 107 % of control
T/C (dose: 70.0 mg/kg/injection, schedule: Q01DX009 (ip), vehicle: water): 122 % of control
T/C (dose: 70.0 mg/kg/injection, schedule: Q01DX Z (ip), vehicle: water): 123 % of control
T/C (dose: 140.0 mg/kg/injection, schedule: Q01DX009 (ip), vehicle: water): 161 % of control

COc1ccc(C(C)(C)CC(C)(C)C)cc1
T/C (dose: 75.0 mg/kg/injection, schedule: Q01DX009 (ip), vehicle: Klucel (hydroxypropylcellulose) (HPC)): 111 % of control
T/C [3]: 108 % of control
T/C (dose: 150.0 mg/kg/injection, schedule: Q01DX009 (ip), vehicle: Klucel (hydroxypropylcellulose) (HPC)): 100 % of control
T/C [4]: 118 % of control
T/C (dose: 300.0 mg/kg/injection, schedule: Q01DX009 (ip), vehicle: Klucel (hydroxypropylcellulose) (HPC)): 91 % of control
T/C (dose: 400.0 mg/kg/injection, schedule: Q04DX002 (ip), vehicle: Klucel (hydroxypropylcellulose) (HPC)): 101 % of control

Cc1cc(C2=NCC(C)S2)c(C(C)C)cc1O (stereo not drawn)
T/C [5]: 93 % of control
T/C [6]: 104 % of control
T/C [7]: 104 % of control

CN=C(NCCCN1CCOCC1)c1ccc(NC(=O)c2ccc(C(=O)Nc3ccc(C(=NC)NCCCN4CCOCC4)cc3)cc2)cc1
T/C (dose: 12.5 mg/kg/injection, schedule: Q01DX Z (ip), vehicle: water): 103 % of control
T/C (dose: 25.0 mg/kg/injection, schedule: Q01DX Z (ip), vehicle: water): 113 % of control

CCN(CC)CCCNc1cc(OC)cc2cccnc12
T/C (dose: 10.0 mg/kg/injection, schedule: Q01DX001 (ip), vehicle: carboxymethylcellulose (CMC)): 107 % of control
T/C (dose: 20.0 mg/kg/injection, schedule: Q01DX001 (ip), vehicle: carboxymethylcellulose (CMC)): 101 % of control

O=C(O)C12CCC1(Cl)CC2 (stereo not drawn)
T/C (dose: 50.0 mg/kg/injection, schedule: Q04DX002 (ip), vehicle: Klucel (hydroxypropylcellulose) (HPC)): 104 % of control
T/C [3]: 97 % of control
T/C [4]: 108 % of control

O=C(O)/C(S)=C/c1ccc2c(c1)OCO2
T/C (dose: 100.0 mg/kg/injection, schedule: Q01DX001 (ip), vehicle: carboxymethylcellulose (CMC)): 100 % of control
T/C (dose: 200.0 mg/kg/injection, schedule: Q01DX001 (ip), vehicle: carboxymethylcellulose (CMC)): 102 % of control
T/C (dose: 400.0 mg/kg/injection, schedule: Q01DX001 (ip), vehicle: carboxymethylcellulose (CMC)): 102 % of control

Cc1ccc2c(c1)SN(CN1C(=O)c3ccccc3C1=O)N2
T/C [8]: 103 % of control
T/C [9]: 94 % of control
T/C [10]: 93 % of control
T/C [11]: 96 % of control
T/C [12]: 90 % of control
T/C [13]: 91 % of control

Cc1cc(Cl)cc(C)c1OC(=O)Nc1cccc(C(F)(F)F)c1
T/C [14]: 112 % of control
T/C [15]: 106 % of control
T/C [16]: 101 % of control

N/C(=N\[N+](=O)[O-])Nc1nc2ccccc2s1
T/C [3]: 113 % of control

COc1ccc(OC)c(NC(=O)Nc2cc([N+](=O)[O-])ccc2OC)c1
T/C [17]: 101 % of control
T/C [8]: 97 % of control
T/C [10]: 111 % of control

O=C1C2C3C=CC(CC3)C2C(=O)C2C3C=CC(C3)C12 (stereo not drawn)
T/C [5]: 101 % of control
T/C [6]: 93 % of control

CCOC(=O)C(C(=O)O)(C(c1ccccc1)c1ccccc1)C(c1ccccc1)c1ccccc1
T/C (dose: 75.0 mg/kg/injection, schedule: Q01DX001 (ip), vehicle: carboxymethylcellulose (CMC)): 90 % of control

CC1(CC(=O)O)CCc2ccccc2C1=O (stereo not drawn)
T/C [8]: 98 % of control
T/C [9]: 98 % of control
T/C [10]: 94 % of control
T/C [11]: 96 % of control
T/C [12]: 100 % of control
T/C [13]: 102 % of control

C1CCCC2(CCC1)OCCO2
T/C [14]: 93 % of control
T/C (dose: 100.0 mg/kg/injection, schedule: Q04DX003 (ip), vehicle: saline with Tween-80): 113 % of control
T/C [15]: 102 % of control
T/C (dose: 200.0 mg/kg/injection, schedule: Q04DX003 (ip), vehicle: saline with Tween-80): 108 % of control
T/C [16]: 101 % of control
T/C (dose: 400.0 mg/kg/injection, schedule: Q04DX003 (ip), vehicle: saline with Tween-80): 94 % of control

CCOC(=O)C1Oc2ccccc2O1
T/C [14]: 105 % of control
T/C [5]: 113 % of control
T/C [15]: 99 % of control
T/C [6]: 100 % of control
T/C [16]: 101 % of control
T/C [7]: 97 % of control

CCOC(=O)C1(NC(=O)N(CCCl)N=O)CCCCC1
T/C (dose: 16.0 mg/kg/injection, schedule: Q01DX001 (ip), vehicle: other): 97 % of control
T/C (dose: 31.0 mg/kg/injection, schedule: Q01DX001 (ip), vehicle: other): 106 % of control
T/C (dose: 125.0 mg/kg/injection, schedule: Q01DX001 (ip), vehicle: other): 188 % of control and 220 % of control
T/C (dose: 250.0 mg/kg/injection, schedule: Q01DX001 (ip), vehicle: other): 296 % of control and 317 % of control
T/C (dose: 375.0 mg/kg/injection, schedule: Q01DX001 (ip), vehicle: other): 216 % of control
T/C (dose: 500.0 mg/kg/injection, schedule: Q01DX001 (ip), vehicle: other): 194 % of control and 322 % of control
T/C (dose: 750.0 mg/kg/injection, schedule: Q01DX001 (ip), vehicle: other): 331 % of control
T/C (dose: 1000.0 mg/kg/injection, schedule: Q01DX001 (ip), vehicle: other): 295 % of control

OC(CCCNc1ccccc1)CCCNc1ccccc1
T/C (dose: 75.0 mg/kg/injection, schedule: Q01DX001 (ip), vehicle: saline): 96 % of control
T/C (dose: 150.0 mg/kg/injection, schedule: Q01DX001 (ip), vehicle: saline): 91 % of control

CN(C)CC1CC(=O)C(CN(C)C)CC1=O (stereo not drawn)
T/C (dose: 5.0 mg/kg/injection, schedule: Q01DX001 (ip), vehicle: saline): 92 % of control
T/C (dose: 10.0 mg/kg/injection, schedule: Q01DX001 (ip), vehicle: saline): 107 % of control
T/C (dose: 20.0 mg/kg/injection, schedule: Q01DX001 (ip), vehicle: saline): 104 % of control
T/C (dose: 40.0 mg/kg/injection, schedule: Q01DX001 (ip), vehicle: saline): 103 % of control

NCCc1cnc(N=Nc2ccc(C(=O)O)cc2)[nH]1
T/C [17]: 89 % of control
T/C [8]: 89 % of control
T/C [10]: 87 % of control

COC(=O)C1C(O)CN2CCCC12 (stereo not drawn)
T/C [1]: 93 % of control
T/C [2]: 93 % of control
T/C (dose: 400.0 mg/kg/injection, schedule: Q04DX003 (ip), vehicle: saline): 93 % of control

From PubChem BioAssay AID248 (DTP/NCI, 2004)
